One may read the melting point as the temperature, or range, at which the solid turns liquid.

Where a name gives a salt, the structure may show the parent alone.

Consider seven compounds from US9440967B2, “1H-pyrrolo [2, 3 -B] pyridine derivatives and their use as radical quenchers” (Arizona Board of Regents on Behalf of Arizona State …, priority 2012, dated 2016).

Data set [1] relates to CEM leukemia cells. As to the kind of experiment: Mitochondrial membrane potential (Δψm) assay, TMRM staining (FACS). Conditions: CEM cells pretreated 16 h, then 5 mM DEM 120 min, 250 nM TMRM; FIG. 3 and 4. The class given is cell-based, Human. The protocol: FIG. 3. Representative flow cytometric two-dimensional color density dot plot analyses of mitochondrial membrane potential (ΔΨm) in leukemia CEM cells stained with 250 nM TMRM and analyzed using FL2-H channel as described in the experimental section. The percentage of cells with intact ΔΨm is indicated in the top right quadrant of captions. Representative example from at least three independent experiments. A total of 10000 events were recorded for each sample and analyzed with the CellQuest software (BD Biosciences).
FIG. 4. A bar graph representation of means the percentage of cells with intact ΔΨm recorded by FACS. Data are expressed as means±SEM of three independent experiments run in duplicate.
Measurement of Mitochondrial Membrane Potential (Δψm) (FACS). For the determination of Δψm, CEM leukemia cells were pre-treated with or without the test compounds for 16 h. The cells were treated with 5 mM DEM for 120 minutes, collected by centrifugation at 300×g for 3 minutes and then washed twice with phosphate buffered saline. The cells were re-suspended in HSSB buffer and incubated at 37° C. in the dark for 15 minutes with 250 nM TMRM (a cationic dye which accumulates within mitochondria in accordance with the Δψm Nernst potential). Cells were collected by centrifugation at 300×g for 3 minutes and then washed twice with phosphate buffered saline. The samples were analyzed immediately by flow cytometry using 488 nm excitation laser and the FL2-H channel. The results obtained were verified in three independent experiments. The protonophore FCCP (10 μM) was used to dissipate the chemiosmotic proton gradient […] and served as a control for loss of Δψm. […] The results were verified by repeating the experiments in duplicate.

The subject of data set [2] is CEM cells. As to the kind of experiment: Reactive oxygen species (ROS) assay, DCFH-DA flow cytometry, glutathione depleted with diethyl maleate. The note with it: CEM cells pretreated 16 h with 1, 2.5 and 5 μM compound, then 5 mM DEM 50 min; compared with α-tocopherol; FIG. 1. The class given is cell-based, Human. On the procedure: FIG. 1. Representative flow cytometric histograms overlay showing ROS production in CEM cells. Following pretreatment with the indicated compounds (1, 2.5 and 5 μM) for 16 h, the cells were treated with 5 mM diethyl maleate (DEM) for 50 min to deplete glutathione. The cells were washed in phosphate-buffered saline, and suspended in phosphate-buffered saline containing 20 mM glucose. Cells were loaded with 10 μM dichlorodihydrofluoresceindiacetate (DCFH-DA) for 20 min, and the green fluorescence (DCF) was measured by flow cytometry using the FL1-H channel. […] A total of 10000 events were recorded for each sample and analyzed with the CellQuest software (BD Biosciences). Increased DCF fluorescence, a measure of intracellular oxidation and ROS production, was determined by a shift in DCF fluorescence to the right on the x-axis of the FACS histogram. […] Data are expressed as the mean±SEM (n=3). α-TOH is α-tocopherol.
Cellular ROS production can be monitored using 2′,7′-dichlorodihydrofluorescein diacetate (DCFH-DA) (LeBel et al. (1992) Chem. Res. Toxicol. 5, 227-231) (Molecular Probes, Eugene, Oreg., USA), a membrane permeable and oxidant-sensitive fluorescent dye. DCFH-DA is a non-fluorescent derivative of fluorescein that emits fluorescence after being oxidized by hydrogen peroxide and other ROS. The emitted fluorescence is directly proportional to the concentration of hydrogen peroxide. DCFH-DA is nonionic and nonpolar and is easily taken up by cells. Once inside the cell, DCFH-DA is hydrolyzed by cellular esterases to non-fluorescent DCFH which traps the dye in the cell. In the presence of ROS including hydrogen peroxide, DCFH is oxidized to the highly fluorescent compound dichlorofluorescein (DCF). The intracellular DCF fluorescence is used as an index of cellular ROS production.
Cellular oxidative stress was induced by pharmacological depletion of glutathione (GSH) using the chemical diethylmaleate (DEM). ROS production was assessed by monitoring DCF fluorescence. Leukemic CEM cells (ATCC®, catalogue number CRL-2264) were cultured in RPMI (GIBCO, Grand island, NY, USA) with 10% FCS, 2 mM glutamine (HyClone, South Logan, Utah, USA) and 1% penicillin-streptomycin mix antibiotics (Cellgro, Manassas, Va., USA) supplements. CEM cells (5×10^5 cell/mL) were plated (1 mL) in 24-well plate and treated with the invention compounds (final concentration 1, 2.5, and 5 μM), and incubated at 37° C., 5% CO2 for 16 hours. The compounds tested were prepared by first making stock solutions (2.5 mM) in dimethylsulfoxide (DMSO). Cells were treated with 5 mM DEM for 50 minutes and collected by centrifugation at 300×g for 3 min and then washed twice with Hanks' Balanced Salt Solution (HSSB) buffer (Sigma, St. Louis, Mo. USA). Cells were re-suspended in HSSB buffer+20 mM glucose and incubated at 37° C. in the dark for 20 min with 10 μM DCFH-DA. Cells were collected by centrifugation at 300×g for 3 min and then washed twice with HSSB buffer. The samples were analyzed immediately by flow cytometry (Becton-Dickinson FACS Caliber), (Cell Quest software, BD Biosciences) using 488 nm excitation laser and FL1-H channel 538 nm emission filter. In each analysis, 10,000 events were recorded after cell debris were electronically gated out. Results obtained were verified by repeating experiments N=3 independent experiments. Authentic hydrogen peroxide was used as a positive control.
Background: A flow cytometer gives signals particle by particle.

Data set [3] has as its system CEM leukemia cells. The data set is described as follows: Lipid peroxidation, C11-BODIPY581/591 oxidation in cell culture (FACS). Conditions: CEM cells pretreated 16 h with 2.5 and 5 μM compound, then 5 mM DEM 90 min; compared with α-tocopherol; FIG. 2. The class given is cell-based, Human. The protocol:
FIG. 2. Comparison of the lipid peroxidation in CEM leukemia cells depleted of glutathione detected by utilizing the oxidation-sensitive fatty acid probe C-11 BODIPY^581/591 using flow cytometry. Increased C-11 BODIPY-green fluorescence (oxidized form), a measure of intracellular lipid peroxidation, was determined by increasing the geometric mean fluorescence intensity (GMFI) of C-11 BODIPY-green relative to the untreated control. A bar graph representing the percentage of the geometric mean fluorescence intensity (GMFI) of C-11 BODIPY-green fluorescence relative to a treated control is shown. Data are expressed as the mean±SEM (n=3). α-TOH is α-tocopherol.
Lipid peroxidation in CEM leukemia cells was detected by utilizing the oxidant-sensitive lipophilic probe C11 BODIPY^581/591. Briefly, CEM cells (5×10^5 cell/mL) were treated with the test compounds at final concentrations of 2.5 and 5 μM, and incubated at 37° C. for 16 h in a humidified atmosphere containing 5% CO2 in air. Cells were treated with 1 μMC11 BODIPY^581/591 in phenol red-free RPMI-1640 media and incubated at 37° C. in the dark for 30 minutes. The cells were washed twice with phosphate buffered saline and oxidative stress was induced with 5 mM DEM in phenol red-free RPMI-1640 media for 90 minutes. Treated cells were collected by centrifugation at 300×g for 3 minutes and then washed twice with phosphate buffered saline. Cells were re-suspended in 250 μL of phosphate buffered saline and were analyzed by FACS (FACS Calibur flow cytometer, Becton Dickinson) to monitor the change in intensity of the C11 BODIPY^581/591-green (oxidized) fluorescence signal. A total of 10000 events were recorded for each sample and analyzed with the CellQuest software (BD Biosciences). The results were verified by repeating the experiments in duplicate. Results are expressed as the relative percentage of treated control (DEM).

The conditions of data set [4]: James et al. (2005) J Biol. Chem. 280, 21295-21312; cited from earlier work.
Data set [5] deals with CEM cells. As to the kind of experiment: Trypan blue cell viability assay of DEM-treated cells. Conditions: CEM cells pretreated 16 h, then 5 mM DEM 5.5 h; FIG. 5. The class given is cell-based, Human. On the procedure:
FIG. 5. Trypan blue exclusion assay of CEM cells treated with test compounds for 16 h before exposure to 5 mM diethyl maleate for 5.5 h. At the time of assay, >80% of the DEM-treated cells were trypan blue positive, whereas in the non-DEM treated control, >95% of the cells were viable. Cell viability was expressed as the percentage of control. Results are an average of three independents trials. α-TOH is α-tocopherol.
Cell viability determined by trypan blue exclusion assay: This technique was used to assess the cytoprotective effects of the invention compounds in cultured cells pharmacologically treated to induce cell death by GSH depletion. DEM was used to deplete cellular GSH and induce oxidative stress. The viability of DEM-treated CEM cells was determined by their ability to exclude the dye trypan blue. Viable cells exclude trypan blue; whereas, non-viable cells take up the dye and stain blue. Briefly, CEM lymphoblasts (CCL-119) were grown in RPMI 1640 medium (GIBCO, Grand island, NY, USA) supplemented with 10% fetal calf serum, 2 mM glutamine (HyClone, South Logan, Utah, USA), 1% penicillin-streptomycin mix (Cellgro, Manassas, Va., USA). Cells were seeded at a density of 5×10^5 cells/mL and treated with different concentrations of the invention compounds. Cells were incubated at 37° C. in a humidified atmosphere of 5% CO2 in air for 16 hours. After pre-incubation, the cells were treated with 5 mM DEM for 5.5 h. Cell viability was determined by staining cells with 0.4% trypan blue using a hemacytometer. At least 500 cells were counted for each experimental group. At the time of assay, >80% of DEM-treated cells were trypan blue positive; whereas, in non-DEM treated control cell cultures>95% cells were viable. Cell viability was expressed as the percentage of control. Data are expressed as means±S.E.M (n=3).

Take `CCCCCc1nc2c(c(C)c1O)CCN2C` [Compound 1a, 1,4-Dimethyl-6-pentyl-2,3-dihydro-1H-pyrrolo[2,3-b]pyridin-5-ol trifluoroacetic acid salt]: in the data set on CEM leukemia cells [1], the “prevention of loss of Δψm (mitochondrial depolarization)” value (“prevention of loss of Δψm” for short) is reported as “less effective in preventing mitochondrial depolarization”. For the same compound, the “protection against ROS production (DCF fluorescence)” value (“protection against ROS production” below) with CEM cells [2] is “reduced protection”. Also, in the data set with CEM leukemia cells [3], the “protection against lipid (membrane) peroxidation (C11-BODIPY-green fluorescence)” value (shortened to “protection against lipid”) is on record as “no protection”.

Regarding `CCCCCCCCCCCCCCCCc1nc2c(c(C)c1O)CCN2C` [Compound 1c, 1,4-Dimethyl-6-hexadecyl-2,3-dihydro-1H-pyrrolo[2,3-b]pyridin-5-ol trifluoroacetic acid salt], in the data set with CEM leukemia cells [1], the “prevention of loss of Δψm” value is listed as “less effective in preventing mitochondrial depolarization”. In addition, the “protection against ROS production” value in the data set on CEM cells [2] was “intermediate protection”. Also, in the data set with CEM leukemia cells [3], the “protection against lipid” value is recorded as “Reduced protection”.

Turning to `CCCCCc1nc2c(c(C)c1OC(C)=O)CCN2C` [Compound 2a, 1,4-Dimethyl-6-pentyl-2,3-dihydro-1H-pyrrolo[2,3-b]pyridin-5-yl acetate], the “prevention of loss of Δψm” value in the data set on CEM leukemia cells [1] is “less effective in preventing mitochondrial depolarization”. Besides, the “protection against ROS production” value with CEM cells [2] is “reduced protection”. The “protection against lipid” value in the data set on CEM leukemia cells [3] is “no protection”.

On to `CCCCCCCCCCCCCCCCc1nc2c(c(C)c1OC(C)=O)CCN2C` [Compound 2c, 1,4-Dimethyl-6-hexadecyl-2,3-dihydro-1H-pyrrolo[2,3-b]pyridin-5-yl acetate], for which the “prevention of loss of Δψm” value with CEM leukemia cells [1] was “less effective in preventing mitochondrial depolarization”. The “protection against ROS production” value in the data set on CEM cells [2] is “intermediate protection”. Further, the “protection against lipid” value with CEM leukemia cells [3] is listed as “Reduced protection”.

As for `CCCCCCCCCCCCCCCCc1cc(C)c2c(n1)N(C)CC2` [Example 10, 1,4-Dimethyl-6-hexadecyl-2,3-dihydro-1H-pyrrolo[2,3-b]pyridine], the melting point was 43 to 45 °C.

On to `COC1=C(OC)C(=O)C(C/C=C(\C)CC/C=C(\C)CC/C=C(\C)CC/C=C(\C)CC/C=C(\C)CC/C=C(\C)CC/C=C(\C)CC/C=C(\C)CC/C=C(\C)CCC=C(C)C)=C(C)C1=O` [coenzyme Q10], for which, in data set [4], the “calculated octanol-water partition coefficient” value is given as > 10^20.

Consider `Cc1c(C)c2c(c(C)c1O)CC[C@@](C)(CCC[C@H](C)CCC[C@H](C)CCCC(C)C)O2` [α-tocopherol, reference compound], for which, in the data set on CEM cells [5], the “cytoprotection (cell viability, trypan blue exclusion)” value is given as “significantly reduced cell death”.
